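Values below derive from 48-hour exposures of cells grown in 96-well plates, with endpoints linearly interpolated between the two concentrations bracketing the appropriate inhibition level. GI50: concentration for 50% inhibition of growth.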 Active and inactive are the calls of the source. Rule as the data show it: active = GI50 up to about 1.1 µM and inactive = higher.
Experiments:
Assay in all cases: NCI-60 cell line screen, 48 h
MCF7 = tested on: MCF7
A498 = tested on: A498
OVCAR-3 = tested on: OVCAR-3
COLO 205 = tested on: COLO 205
EKVX = tested on: EKVX
NCI-H460 = tested on: NCI-H460
CCRF-CEM = tested on: CCRF-CEM
UACC-62 = tested on: UACC-62
UACC-257 = tested on: UACC-257
HT-29 = tested on: HT-29
MOLT-4 = tested on: MOLT-4
LOX IMVI = tested on: LOX IMVI
OVCAR-5 = tested on: OVCAR-5
HCT-116 = tested on: HCT-116
SR = tested on: SR
SF-539 = tested on: SF-539
T47D = tested on: T47D
TK-10 = tested on: TK-10
BT-549 = tested on: BT-549
Malme-3M = tested on: Malme-3M
HCT-15 = tested on: HCT-15
UO-31 = tested on: UO-31
U-251 = tested on: U-251
PC-3 = tested on: PC-3
SK-OV-3 = tested on: SK-OV-3
OVCAR-8 = tested on: OVCAR-8
SNB-19 = tested on: SNB-19
HL-60 = tested on: HL-60
SNB-75 = tested on: SNB-75
SW-620 = tested on: SW-620
K562 = tested on: K562
NCI-H226 = tested on: NCI-H226
M14 = tested on: M14
MDA-N = tested on: MDA-N
NCI/ADR-RES = tested on: NCI/ADR-RES
OVCAR-4 = tested on: OVCAR-4
CAKI-1 = tested on: CAKI-1
MDA-MB-231 = tested on: MDA-MB-231
ACHN = tested on: ACHN
A549 = tested on: A549
HCC 2998 = tested on: HCC 2998
SN12C = tested on: SN12C
NCI-H23 = tested on: NCI-H23
786-0 = tested on: 786-0
Hs-578T = tested on: Hs-578T
SK-MEL-5 = tested on: SK-MEL-5
IGROV-1 = tested on: IGROV-1
RXF 393 = tested on: RXF 393
SK-MEL-28 = tested on: SK-MEL-28
SF-295 = tested on: SF-295
KM12 = tested on: KM12
DU-145 = tested on: DU-145
SF-268 = tested on: SF-268
HOP-62 = tested on: HOP-62
HOP-92 = tested on: HOP-92
NCI-H522 = tested on: NCI-H522
MDA-MB-435 = tested on: MDA-MB-435
SK-MEL-2 = tested on: SK-MEL-2
RPMI-8226 = tested on: RPMI-8226

Measured: GI50

N#CS/C(Cl)=C(/C(Cl)=C(Cl)Cl)[N+](=O)[O-]
inactive: MCF7 29.9 µM | A498 79.6 µM | OVCAR-3 21.9 µM | COLO 205 30.5 µM | EKVX > 100 µM | NCI-H460 42.8 µM | CCRF-CEM 33 µM | UACC-62 47.2 µM | UACC-257 36.6 µM | HT-29 34.5 µM | MOLT-4 36.3 µM | LOX IMVI 19.6 µM | OVCAR-5 > 100 µM | HCT-116 25.4 µM | SR 24.7 µM | SF-539 32.9 µM | T47D 37.2 µM | TK-10 > 100 µM | BT-549 36.8 µM | Malme-3M 20.7 µM | UO-31 24.5 µM | U-251 35.8 µM | PC-3 35.2 µM | SK-OV-3 > 100 µM | OVCAR-8 34.4 µM | SNB-19 1.89 µM | HL-60 29.1 µM | SNB-75 32.3 µM | SW-620 29.7 µM | K562 40.7 µM | NCI-H226 > 100 µM | M14 34.4 µM | MDA-N 34.6 µM | NCI/ADR-RES 28.4 µM | OVCAR-4 48.3 µM | CAKI-1 35.4 µM | MDA-MB-231 52.5 µM | ACHN 31.3 µM | A549 > 100 µM | HCC 2998 39.8 µM | SN12C 36.9 µM | NCI-H23 33.3 µM | 786-0 28.2 µM | Hs-578T 16.6 µM | SK-MEL-5 49.7 µM | IGROV-1 37.5 µM | RXF 393 47.3 µM | SK-MEL-28 29.4 µM | SF-295 53.2 µM | KM12 47.6 µM | DU-145 > 100 µM | SF-268 38 µM | HOP-62 > 100 µM
20.9 µM: HCT-15

C[C@]12CCC(=O)C=C1CC[C@@H]1C2CC[C@]2(C)Nc3c(ncn3-c3ccc(F)cc3)CC12 (some centres undefined)
inactive: MCF7 18 µM | A498 22.3 µM | OVCAR-3 29.2 µM | COLO 205 15.7 µM | EKVX 27.3 µM | NCI-H460 21.7 µM | CCRF-CEM 21 µM | UACC-62 16.1 µM | UACC-257 17.8 µM | HT-29 18.9 µM | MOLT-4 23.3 µM | OVCAR-5 40.7 µM | HCT-116 15 µM | SR 3.34 µM | SF-539 11.7 µM | T47D 18.3 µM | TK-10 27.7 µM | BT-549 20.3 µM | Malme-3M 18.9 µM | HOP-92 33.2 µM | UO-31 27 µM | U-251 20.9 µM | PC-3 12 µM | SK-OV-3 39.3 µM | OVCAR-8 35.2 µM | SNB-19 49.2 µM | HL-60 3.2 µM | SNB-75 17.5 µM | SW-620 31.6 µM | K562 5.82 µM | NCI-H522 15 µM | NCI-H226 49.2 µM | M14 23.8 µM | MDA-N 11.8 µM | OVCAR-4 28.2 µM | CAKI-1 46.2 µM | MDA-MB-231 42.5 µM | ACHN 20.8 µM | A549 21.9 µM | HCC 2998 20.2 µM | SN12C 41.3 µM | NCI-H23 23.1 µM | 786-0 31 µM | Hs-578T 16.3 µM | SK-MEL-5 13.5 µM | IGROV-1 52.4 µM | RXF 393 5.56 µM | SK-MEL-28 29.3 µM | SF-295 15.3 µM | KM12 17.2 µM | DU-145 23.7 µM | MDA-MB-435 12.6 µM | SF-268 19.1 µM | HOP-62 37.8 µM

N/C(=N\O)N/N=C/c1cc(I)cc(I)c1O
inactive: MCF7 10 µM | A498 > 100 µM | OVCAR-3 2.2 µM | COLO 205 27 µM | EKVX 58.3 µM | NCI-H460 35.2 µM | CCRF-CEM 7.89 µM | UACC-62 31.9 µM | UACC-257 52.2 µM | HT-29 46.7 µM | MOLT-4 > 100 µM | LOX IMVI 25.4 µM | OVCAR-5 79.1 µM | HCT-116 23.7 µM | SF-539 29.7 µM | T47D 48.1 µM | TK-10 57.7 µM | BT-549 47.4 µM | Malme-3M 19.3 µM | SK-MEL-2 54.8 µM | U-251 34.8 µM | PC-3 37.2 µM | SK-OV-3 75.5 µM | OVCAR-8 27.9 µM | SNB-19 49.5 µM | HL-60 13.2 µM | SW-620 > 100 µM | K562 43.2 µM | NCI-H522 80.5 µM | M14 19 µM | MDA-N 82.6 µM | NCI/ADR-RES 2.8 µM | OVCAR-4 27.6 µM | CAKI-1 57.1 µM | MDA-MB-231 54.8 µM | ACHN 24.1 µM | A549 49.3 µM | HCC 2998 61.9 µM | SN12C 28.8 µM | NCI-H23 28 µM | 786-0 22.2 µM | Hs-578T > 100 µM | SK-MEL-5 30.6 µM | IGROV-1 30.8 µM | RXF 393 24.5 µM | SK-MEL-28 49.2 µM | SF-295 50.4 µM | KM12 > 100 µM | DU-145 31.6 µM | MDA-MB-435 69.5 µM | SF-268 24.1 µM | HOP-62 42.3 µM
5.37 µM: HCT-15
active: NCI-H226 0.627 µM

c1ccc(C(C2=Nc3cccc4cccc(c34)N2)c2ccccc2)cc1
inactive: MCF7 31.8 µM | OVCAR-3 20.3 µM | COLO 205 18.9 µM | EKVX 30.3 µM | NCI-H460 24.7 µM | CCRF-CEM 39.2 µM | UACC-62 17.5 µM | UACC-257 24.5 µM | HT-29 23.2 µM | LOX IMVI 18.7 µM | HCT-116 > 10 µM | SF-539 17.2 µM | T47D 13.3 µM | TK-10 47.9 µM | BT-549 22 µM | Malme-3M 27.8 µM | HOP-92 18.7 µM | UO-31 17.8 µM | SK-MEL-2 20.9 µM | U-251 18 µM | PC-3 23 µM | SK-OV-3 21.5 µM | OVCAR-8 30.7 µM | SNB-19 37.8 µM | HL-60 31.7 µM | SNB-75 22.3 µM | SW-620 47.3 µM | K562 19 µM | NCI-H522 16.6 µM | NCI-H226 31.6 µM | M14 18.1 µM | MDA-N 23.4 µM | NCI/ADR-RES 21.2 µM | OVCAR-4 53.5 µM | CAKI-1 22.6 µM | MDA-MB-231 30.8 µM | ACHN 19.3 µM | A549 37.2 µM | HCC 2998 20.6 µM | SN12C 14.8 µM | NCI-H23 28.1 µM | 786-0 26.2 µM | Hs-578T 27 µM | SK-MEL-5 20.5 µM | IGROV-1 33.9 µM | RXF 393 27.3 µM | SK-MEL-28 23.6 µM | RPMI-8226 21.6 µM | SF-295 21.1 µM | KM12 20.6 µM | DU-145 32.2 µM | MDA-MB-435 25.5 µM | SF-268 24.4 µM | HOP-62 23.1 µM
25.1 µM: HCT-15

CCCCCCCCP(=O)(O)OP(=O)(O)OCC1OC(n2ccc(N)nc2=O)C(O)C1O (centres undefined)
> 100 µM: HCT-15
inactive: MCF7 > 100 µM | A498 > 100 µM | OVCAR-3 > 100 µM | COLO 205 > 100 µM | EKVX > 100 µM | NCI-H460 > 100 µM | CCRF-CEM > 100 µM | UACC-62 > 100 µM | UACC-257 > 100 µM | HT-29 > 100 µM | MOLT-4 > 100 µM | LOX IMVI > 100 µM | OVCAR-5 > 100 µM | HCT-116 > 100 µM | SF-539 > 100 µM | T47D > 100 µM | TK-10 > 100 µM | BT-549 > 100 µM | Malme-3M > 100 µM | HOP-92 > 100 µM | UO-31 > 100 µM | SK-MEL-2 > 100 µM | U-251 > 100 µM | PC-3 > 100 µM | SK-OV-3 > 100 µM | OVCAR-8 > 100 µM | SNB-19 > 100 µM | HL-60 > 100 µM | SNB-75 > 100 µM | SW-620 > 100 µM | K562 > 100 µM | NCI-H522 > 100 µM | NCI-H226 > 100 µM | M14 > 100 µM | MDA-N > 100 µM | NCI/ADR-RES > 100 µM | OVCAR-4 > 100 µM | CAKI-1 > 100 µM | MDA-MB-231 > 100 µM | ACHN > 100 µM | A549 > 100 µM | HCC 2998 > 100 µM | SN12C > 100 µM | NCI-H23 > 100 µM | 786-0 > 100 µM | Hs-578T > 100 µM | SK-MEL-5 > 100 µM | IGROV-1 > 100 µM | RXF 393 > 100 µM | SK-MEL-28 > 100 µM | RPMI-8226 > 100 µM | SF-295 > 100 µM | KM12 > 100 µM | MDA-MB-435 > 100 µM | SF-268 > 100 µM | HOP-62 > 100 µM

— ChEMBL document CHEMBL1201862, “PubChem BioAssay data set” (2004)
